{"source": "patent US12384753B2", "about": "“17-beta-hydroxysteroid dehydrogenase type 13 inhibitors and methods of use thereof” (Enanta Pharmaceuticals, Inc., priority 2021, dated 2025)"}
{"target": "Recombinant human HSD17B13 (Homo sapiens (Human), UniProt Q7Z5P4)", "sequence (Q7Z5P4 20-300)": "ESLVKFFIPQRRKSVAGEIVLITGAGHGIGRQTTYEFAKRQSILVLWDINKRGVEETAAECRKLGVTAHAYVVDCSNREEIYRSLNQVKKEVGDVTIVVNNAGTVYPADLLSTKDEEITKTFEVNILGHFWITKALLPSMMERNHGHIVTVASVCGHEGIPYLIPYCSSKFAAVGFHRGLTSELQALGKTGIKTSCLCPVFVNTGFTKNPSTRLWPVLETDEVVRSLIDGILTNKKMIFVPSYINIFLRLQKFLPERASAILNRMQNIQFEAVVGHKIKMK", "assay": "HSD17B13 rapid-fire mass spectrometry assay (RF/MS assay)", "format": "biochemical", "conditions": "inhibition of HSD17B13; LTB4 10 μM, NAD+ 0.5 mM, RT 3 h; IC50 ranges A-E", "source_text": "HSD17B13 rapid-fire mass spectrometry assay (RF/MS assay). Recombinant human HSD17B13 was expressed and purified from sf9 cells at Charles River Labs (Saffron Walden, UK). Leukotriene B4 (Catalog #71160-24-2) and 12-oxoleukotriene B4 (Catalog #20140) were purchased from Cayman Chemicals (Ann Arbor, Michigan.). NAD+ (Catalog #N8285), BSA (Catalog #A7030), DMSO (Catalog #D2650), and Tween-20 (Catalog #11332465001) were purchased from Sigma (St. Louis, MO). Formic acid (Catalog #28905) was from ThermoFisher Scientific and 384 deep well PP microplates (Catalog #784261) were from Greiner Bio-One. In a typical IC50 assay performed in a 384w PP microplate, test compounds (0-100 μM) were incubated with HSD17B13 (80 nM), LTB4 (10 μM), and NAD^+ (0.5 mM) in 10 μL assay buffer (20 mM Tris (pH 7.5), BSA (0.005%), and Tween-20 (0.01%)) at RT for 3 h. The assays were quenched by adding 20 μL of 0.15% aqueous formic acid and the plates were frozen at −80° C. RF/MS analysis was performed at PureHoney Technologies (Billerica, MA) on a RapidFire RF300 system (Agilent Technologies, Inc.) coupled to an API 4000 triple quadrupole mass spectrometer (Sciex) equipped with Agilent RapidFire cartridge type A (C4). The mobile phase was 0.09% formic acid and 0.01% trifluoracetic acid in water (Buffer A) and 0.09% formic acid and 0.01% trifluoracetic acid in 80% aqueous acetonitrile (Buffer B). The RapidFire method conditions were the following: 250 ms aspirate, 3000 ms load/desalt, 4000 ms elute, and 500 ms re-equilibrate. RF-MS/MS was performed in negative polarity (−4500 V), the source temperature was 650° C., and gas 1 and gas 2 settings for nitrogen were set to 50. The curtain gas and collision gas were also nitrogen and were set to 20 and 12, respectively. Leukotriene B4 (335.3) and 12-oxoLeukotriene B4 (333.3) SRM transitions were optimized with Discovery Quant software and extracted ion counts for these analytes were determined.\nData Analysis. HSD17B13 enzyme activity was measured as percent conversion of extracted ion counts and normalized to high and low controls to determine percent residual activity at various concentrations of test compounds. Data were fitted to normalized activity (variable slope) versus concentration fit in GraphPad Prism 7 to determine IC50. All experiments were run in duplicates.\nBy using above method, the inhibition of HSD17B13 was evaluated for the compounds of Formula (I). IC50 ranges are as follows: A=IC50<0.100 μM; B=0.100 μM<IC50<0.500 μM; C=0.500 μM<IC50<1 μM; D=1 μM<IC50<100 μM; E=IC50>100 μM", "units": {"IC50": "nM"}}
{"smiles": "COc1cc(C(=O)NO)ccc1NS(=O)(=O)c1cnc(-c2ccc(F)cc2)s1", "note": "[Example 69, 4-((2-(4-fluorophenyl)thiazole)-5-sulfonamido)-N-hydroxy-3-methoxybenzamide]", "IC50": "1000 to 100000"}
{"smiles": "COc1cc(C(=O)O)c(F)cc1NS(=O)(=O)c1csc(-c2ccc(-c3ccc(C4=CCC(C(C)C)CC4)cc3C(F)(F)F)cc2C(F)(F)F)n1", "note": "(stereo not drawn) [Example 742]", "IC50": "100 to 500"}
{"smiles": "COc1cc(C(=O)O)c(F)cc1NS(=O)(=O)c1csc(-c2ccc(C3CCC(C)(C)CC3)cc2C(C)C)n1", "note": "[Example 560]", "IC50": "100 to 500"}
{"smiles": "CC[C@H]1CC[C@H](c2ccc(-c3ccnc(S(=O)(=O)Nc4cc(F)c(C(=O)O)cc4OC)c3)cc2)CC1", "note": "[Example 640]", "IC50": "100 to 500"}
{"smiles": "COc1cc(C(=O)O)c(F)cc1NS(=O)(=O)c1csc(C#Cc2ccccc2Cl)n1", "note": "[Example 235]", "IC50": "< 100"}
{"smiles": "COc1cc(C(=O)O)c(F)cc1NS(=O)(=O)c1csc(-c2ccc(C3CCC(C)(C)CC3)c(OC)c2)n1", "note": "[Example 525]", "IC50": "500 to 1000"}
{"smiles": "COc1cc(C(=O)O)c(F)cc1NS(=O)(=O)c1csc(-c2ccc([C@H]3CC[C@H](C(F)(F)F)CC3)cc2C(F)(F)F)n1", "note": "[Example 607]", "IC50": "< 100"}
{"smiles": "COc1cc(C(=O)O)c(F)cc1NS(=O)(=O)c1csc(-c2ccc(C3=CCC(C)(C)CC3)c(F)c2)n1", "note": "[Example 512]", "IC50": "< 100"}
{"smiles": "COc1cc(C(=O)O)c(F)cc1NS(=O)(=O)c1csc(-c2ccc(-c3ccc4[nH]ccc4c3)cc2)n1", "note": "[Example 638]", "IC50": "< 100"}
{"smiles": "CCOc1c(F)c(-c2nc(S(=O)(=O)Nc3cc(F)c(C(=O)O)cc3OC)cs2)ccc1[C@H]1CC[C@H](C(F)(F)F)CC1", "note": "[Example 815]", "IC50": "100 to 500"}
{"smiles": "COc1cc(C(=O)O)ccc1NS(=O)(=O)c1ccc(-c2cccc(F)c2)s1", "note": "[Example 208]", "IC50": "< 100"}
{"smiles": "COc1cc(C(=O)O)c(F)cc1NS(=O)(=O)c1csc(-c2ccc(-c3ccc(C4(C(F)(F)F)CC4)cc3)cc2C(F)(F)F)n1", "note": "[Example 794]", "IC50": "< 100"}
{"smiles": "COc1cc(C(=O)O)ccc1NS(=O)(=O)c1csc(-c2ccc(C(=O)O)cc2OC)n1", "note": "[Example 322]", "IC50": "1000 to 100000"}
{"smiles": "COc1cc(C(=O)O)ccc1NS(=O)(=O)c1csc(-c2ccc(C#N)cc2)n1", "note": "[Example 148]", "IC50": "1000 to 100000"}
{"smiles": "COc1cc(C(=O)O)c(F)cc1NS(=O)(=O)c1csc(C2=CCC(C(C)C)CC2)n1", "note": "(stereo not drawn) [Example 800]", "IC50": "500 to 1000"}
{"smiles": "COc1cc(C(=O)O)c(F)cc1NS(=O)(=O)c1csc(-c2ccc([C@H]3CC[C@H](C(F)(F)F)CC3)c(OC)c2F)n1", "note": "[Example 605]", "IC50": "< 100"}
{"smiles": "COc1cc(C(=O)O)ccc1NS(=O)(=O)c1cnc(-c2ccc(C3=CCC(c4ccccc4)CC3)cc2)s1", "note": "(stereo not drawn) [Example 451, 3-methoxy-4-((2-(2′,3′,4′,5′-tetrahydro-[1,1′:4′,1″-terphenyl]-4-yl)thiazole)-5-sulfonamido)benzoic acid]", "IC50": "100 to 500"}
{"smiles": "COc1cc(C(=O)O)ccc1NS(=O)(=O)c1ccc(C2=CCC3(CC2)OCCO3)cc1F", "note": "[Example 356]", "IC50": "100 to 500"}
{"smiles": "COc1cc(C(=O)O)ccc1NS(=O)(=O)c1ccc(C2=CCN(c3ccccc3)CC2)cc1F", "note": "[Example 341]", "IC50": "500 to 1000"}
{"smiles": "COc1cc(C(=O)O)ccc1NS(=O)(=O)c1csc(-c2cccc(C(F)(F)F)c2)n1", "note": "[Example 126]", "IC50": "500 to 1000"}
{"smiles": "COc1cc(C(=O)O)ccc1NS(=O)(=O)c1csc(C#Cc2ccc(O)cc2)n1", "note": "[Example 183]", "IC50": "1000 to 100000"}
{"smiles": "O=C(O)c1ccc2c(c1)CN(S(=O)(=O)c1ccc(F)cc1)C2", "note": "[Example 11]", "IC50": "> 100000"}
{"smiles": "COc1cc(C(=O)O)c(F)cc1NS(=O)(=O)c1csc(-c2ccc(C34CC5C[C@H](C3)C[C@H](C5)C4)cc2)n1", "note": "[Example 732]", "IC50": "100 to 500"}
{"smiles": "COc1cc(C(=O)O)c(F)cc1NS(=O)(=O)c1csc(-c2ccc([C@H]3CC[C@H](C(C)(C)C)CC3)c(OC(C)C)c2F)n1", "note": "[Example 598]", "IC50": "100 to 500"}
{"smiles": "CCCCOc1c(F)c(-c2nc(S(=O)(=O)Nc3cc(F)c(C(=O)O)cc3OC)cs2)ccc1[C@H]1CC[C@@H](C(C)C)CC1", "note": "[Example 588]", "IC50": "100 to 500"}
{"smiles": "O=C(O)c1ccc(NS(=O)(=O)c2cnc(-c3ccc(F)cc3)s2)s1", "note": "[Example 77]", "IC50": "1000 to 100000"}
{"smiles": "COc1cc(C(=O)O)ccc1NS(=O)(=O)c1csc(NCCc2ccccc2)n1", "note": "[Example 165]", "IC50": "1000 to 100000"}
{"smiles": "O=C(O)c1ccc(NS(=O)(=O)c2cnc(-c3ccc(F)cc3)s2)cc1O", "note": "[Example 107]", "IC50": "500 to 1000"}
{"smiles": "COc1cc(C(=O)O)c(F)cc1NS(=O)(=O)c1csc(-c2ccc([C@H]3CC[C@H](C(C)C)CC3)c(F)c2F)n1", "note": "[Example 773]", "IC50": "< 100"}
{"smiles": "COc1cc(C(=O)O)c(F)cc1NS(=O)(=O)c1cnc(-c2ccc(C3=CCC(C(C)(C)C)CC3)cc2)s1", "note": "(stereo not drawn) [Example 717]", "IC50": "< 100"}
{"smiles": "COc1cc(C(=O)O)c(F)cc1NS(=O)(=O)c1csc(-c2ccc(C3=CCC(C)(C)CC3)c(OC(F)(F)F)c2)n1", "note": "[Example 537]", "IC50": "< 100"}
{"smiles": "COc1cc(C(=O)O)ccc1NS(=O)(=O)c1csc(-c2ccc(-c3ccccc3)c(F)c2)n1", "note": "[Example 302]", "IC50": "100 to 500"}
{"smiles": "COc1cc(C(=O)O)ccc1NS(=O)(=O)c1ccc(-c2cnc(-c3ccc(C4CCCCC4)cc3)s2)cc1", "note": "[Example 378, 4-((4-(2-(4-cyclohexylphenyl)thiazol-5-yl)phenyl)sulfonamido)-3-methoxybenzoic acid]", "IC50": "1000 to 100000"}
{"smiles": "COc1cc(C(=O)O)c(F)cc1NS(=O)(=O)c1csc(-c2ccc(-c3ccncc3)cc2)n1", "note": "[Example 652]", "IC50": "100 to 500"}
{"smiles": "O=C(O)c1ccc(NS(=O)(=O)c2cnc(-c3ccc(F)cc3)s2)c(O)c1F", "note": "[Example 62]", "IC50": "< 100"}
{"smiles": "COc1cc(C(=O)O)ccc1NS(=O)(=O)c1csc(-c2ccccc2C#N)n1", "note": "[Example 159]", "IC50": "1000 to 100000"}
{"smiles": "COc1cc(C(=O)O)c(F)cc1NS(=O)(=O)c1cnc(-c2ccc(C3CCC(c4ccccc4)CC3)cc2)s1", "note": "(stereo not drawn) [Example 643]", "IC50": "100 to 500"}
{"smiles": "COc1cc(C(=O)O)ccc1NS(=O)(=O)c1ccc(C2=CCC(c3ccccc3)CC2)cc1F", "note": "(stereo not drawn) [Example 343, 4-((3-fluoro-2′,3′,4′,5′-tetrahydro-[1,1′:4′,1″-terphenyl])-4-sulfonamido)-3-methoxybenzoic acid]", "IC50": "< 100"}
{"smiles": "CCOc1c(C2=CCC(C(F)(F)F)CC2)ccc(-c2nc(S(=O)(=O)Nc3cc(F)c(C(=O)O)cc3OC)cs2)c1F", "note": "(stereo not drawn) [Example 816]", "IC50": "< 100"}
{"smiles": "COc1cc(O)ccc1NS(=O)(=O)c1cnc(-c2ccc(F)cc2)s1", "note": "[Example 110]", "IC50": "1000 to 100000"}
{"smiles": "COc1cc(C(=O)O)c(F)cc1NS(=O)(=O)c1csc(-c2ccc([C@H]3CC[C@@H](C(C)C)CC3)c(C)c2F)n1", "note": "[Example 807]", "IC50": "< 100"}
{"smiles": "CCC[C@H]1CC[C@H]([C@H]2CC[C@H](c3nc(S(=O)(=O)Nc4cc(F)c(C(=O)O)cc4OC)cs3)CC2)CC1", "note": "[Example 734]", "IC50": "100 to 500"}
{"smiles": "COc1cc(C(=O)O)ccc1NS(=O)(=O)c1ccc(-c2ccc3c(c2)C(C)(C)CCC3(C)C)cc1F", "note": "[Example 339]", "IC50": "500 to 1000"}
{"smiles": "COc1cc(C(=O)O)ccc1NS(=O)(=O)c1cccc(-c2ccc(C3CCCCC3)cc2)n1", "note": "[Example 412]", "IC50": "100 to 500"}
{"smiles": "O=C(O)c1ccc2c(c1)CCCN2S(=O)(=O)c1ccc(F)cc1", "note": "[Example 7]", "IC50": "1000 to 100000"}
{"smiles": "COc1cc(C(=O)O)ccc1NS(=O)(=O)c1cnc(-c2ccc(F)cc2)s1", "note": "[Example 161]", "IC50": "100 to 500"}
{"smiles": "COc1cc(C(=O)O)c(F)cc1NS(=O)(=O)c1csc(-c2ccc(C3CC4CCC(C4)C3)cc2)n1", "note": "(stereo not drawn) [Example 534]", "IC50": "100 to 500"}
{"smiles": "CC[C@H]1CC[C@@H](c2ccc(-c3nc(S(=O)(=O)Nc4ccc(C(=O)O)cc4OC)co3)cc2)CC1", "note": "[Example 489]", "IC50": "100 to 500"}
{"smiles": "COc1cc(C(=O)O)ccc1NS(=O)(=O)c1ccc(-c2cnc(-c3ccccc3)s2)c(F)c1", "note": "[Example 337]", "IC50": "100 to 500"}
{"smiles": "COc1cc(C(=O)O)c(F)cc1NS(=O)(=O)c1ccc(-c2ccc(C)cc2)s1", "note": "[Example 233]", "IC50": "100 to 500"}
{"smiles": "COc1cc(C(=O)O)ccc1NS(=O)(=O)c1ccc(-c2cccc(-c3ccc(F)cc3)c2)s1", "note": "[Example 251]", "IC50": "100 to 500"}
{"smiles": "COc1cc(C(=O)O)ccc1NS(=O)(=O)c1csc(C#Cc2ccc(C#N)c(OC(F)(F)F)c2)n1", "note": "[Example 397]", "IC50": "< 100"}
{"smiles": "COc1cc(C(=O)O)c(F)cc1NS(=O)(=O)c1csc(-c2ccc(C3=CCC(C)(C)CC3)c(OC)c2)n1", "note": "[Example 523]", "IC50": "< 100"}
{"smiles": "COc1cc(C(=O)O)ccc1NS(=O)(=O)c1cnc(-c2ccc(C3CCC4(CC3)CC4)cc2)s1", "note": "[Example 746]", "IC50": "100 to 500"}
